Consider 28 compounds from publication PMC7179439, “Synthesis and Structure-Activity Relationship Studies of Hydrazide-Hydrazones as Inhibitors of Laccase from Trametes versicolor” (Molecules, 2020).

A word on the Ki: it is the equilibrium dissociation constant of an inhibitor or competing ligand from its target. A word on the melting point: it is the temperature of the solid-liquid transition.

Data set [1] concerns the target laccase from Trametes versicolor. The data set is described as follows: Laccase enzyme inhibition assay with syringaldazine as substrate. Format: biochemical. Also noted: key to The type of inhibition: a: competitive; b: uncompetitive; c: not determined; d: non-competitive. The following applies: for Ki: 25 °C, pH 5.3, syringaldazine substrate, 6.25% v/v organic co-solvent; for The type of inhibition / type of inhibition: Lineweaver-Burk transformation. As to the method:
The activity of laccase was determined using the procedure described by Leonowicz and Grzywnowicz. Basically, a standard reaction mixture contained the enzyme in McIlvaine buffer (1.5 mL, pH 5.3) in the presence or absence of tested compounds (0.1 mL) and substrate – syringaldazine (0.1 mL). Two water-miscible media were tested as suitable co-solvents for hydrazide-hydrazones which are poorly soluble in water. For that purpose, the stability of laccase (40 nM, McIlvaine buffer, pH 5.3) in methanol and DMSO (6.25% v/v) at 25 °C was investigated (see Supplementary Material). The samples containing the enzyme, with a volumetric buffer–co-solvent ratio of 15:1, were withdrawn in different time intervals for 1500 min. A reaction system contained the 1.6 mL of the collected sample and 0.1 mL of syringaldazine (5.9 µM). Laccase activity was determined spectrophotometrically (UV-VIS 1800, Shimadzu, Reinach, Switzerland) by monitoring the changes in absorbance at 525 nm resulted from oxidation of the substrate syringaldazine with an extinction coefficient ε0 = 65000 M^−1·cm^−1 [99]. Kinetic parameters, Km and k3 were determined for two protein concentrations (20 and 40 nM) and with the nine concentrations of syringaldazine (0.59 to 20 µM), using the Michaelis-Menten model, Equation (1):V = Vmax · CS/(Km + CS), k3 = Vmax/CE(1) where Km [µM], k3 [min^–1] – kinetic constants, Vmax – maximal velocity [µM·min^–1], CS – substrate concentration [µM], CE – enzyme concentration [µM].
The parameters of the function were estimated using the nonlinear least square method in Matlab (The Mathworks, R2019a Version 9.6, academic licence). The method was used simultaneously for datasets obtain for different enzyme concertation. The common minimum of error function was found for all considered datasets resulting in one common estimate of each model parameter. The goodness of fit was assessed using the coefficient of determination (R^2); the sum of squared errors (SSE) and root mean squared error (RMSE). The 25 hydrazide-hydrazones, 4-hydroxybenzoic acid (control, 4-HBA), 4-hydroxybenzohydrazide (4a – 4-HBAH), and sodium azide (control) were tested against laccase in the standard reaction mixture. Prior to the substrate addition, the laccase and tested compound were pre-incubated for 10 min at 25 °C. At least three inhibitor concentrations were used in each experiment. All measurements were performed in triplicate. To determine the type of inhibition Lineweaver–Burk transformation was used applying the following equations for competitive (2), uncompetitive (3) and non-competitive model (4). The parameters of these equations were estimated using the linear least square method. 1/V = Km/Vmax · (1 + Ci/Ki) · 1/CS + 1/Vmax(2) 1/V = Km/Vmax · 1/CS + 1/Vmax · (1 + Ci/Ki)(3) 1/V = Km/Vmax · (1 + Ci/Ki) · 1/CS + 1/Vmax · (1 + Ci/Ki)(4) where Km [µM]—Michaelis-Menten constant, Vmax—maximal velocity [µM·min^–1], Ki—inhibition constant [µM], CS—substrate concentration [µM], Ci—inhibitor concentration [µM].

“And” between values parts separate entries of the source, which are not always exact repeats. Identical values can stand only once. Where only a bound is given, the exact number is not on record here.

Regarding `COc1ccccc1/C=N/NC(=O)c1ccc(O)cc1` [1h, 4-Hydroxy-N’-[(E)-(2-methoxyphenyl)methylidene]benzohydrazide], in data set [1], the Ki came to 1060 ± 18 µM and the “The type of inhibition” value is recorded as “a”.

Consider `COc1cccc(/C=N/NC(=O)c2ccc(O)cc2)c1` [1i, 4-Hydroxy-N’-[(E)-(3-methoxyphenyl)methylidene]benzohydrazide], for which, in data set [1], the inhibition constant (Ki) is 416 ± 1.5 µM, the “The type of inhibition” value was “a” and the “type of inhibition” value was “competitive”.

Regarding `Cc1cc(/C=N/NC(=O)c2ccc(O)cc2)c(O)c(C(C)(C)C)c1` [3d, 4-Hydroxy-N’-[(E)-3-tert-butyl-2-hydroxy-5-methylbenzylidene]benzohydrazide], the melting point is 261 to 263 °C and 261 to 262 °C. In data set [1], the Ki came to 26.4 ± 3.4 µM, the “The type of inhibition” value is “a” and the “type of inhibition” value is “competitive”.

For `O=C(O)c1ccc(O)cc1` [4-HBA, 4-hydroxybenzoic acid, reference compound], in data set [1], the “inhibitory potency towards laccase” value is on record as “no inhibitory potency” and the Ki was ≥ 2400 µM.

Compound `Cc1cc(/C=N/NC(=O)c2cccc(O)c2)c(O)c(C(C)(C)C)c1` [3g, 3-Hydroxy-N’-[(E)-(3-tert-butyl-2-hydroxy-5-methylphenyl)methylidene]benzohydrazide] showed a melting point of 240 to 242.5 °C. Also, in data set [1], the affinity, expressed as Ki, was 32 ± 8 µM; the “The type of inhibition” value is on record as “d”; the “type of inhibition” value is listed as “non-competitive”.

Compound `O=C(N/N=C/c1cccc(-c2ccccc2)c1O)c1ccc(O)cc1` (hydrate or solvate) [2a, 4-Hydroxy-N’-[(E)-(2-hydroxy-3-phenyl-phenyl)methylidene]benzohydrazide monomethanolate] registered a melting point of 215 to 218 °C.

The compound `COc1cc(O)c(/C=N/NC(=O)c2ccc(O)cc2)c(OC)c1` [3f, 4-Hydroxy-N’-[(E)-(2-hydroxy-4,6-dimethoxyphenyl)methylidene]benzohydrazide] yielded a melting point of 231.5 to 234.5 °C. The inhibition constant Ki in data set [1] was ≥ 1000 µM.

In the case of `COc1cccc(/C=N/NC(=O)c2ccc(O)cc2)c1` (hydrate or solvate) [1i, 4-Hydroxy-N’-[(E)-(3-methoxyphenyl)methylidene]benzohydrazide], the melting point lay within 210 to 212 °C.

On to `Cc1cc(CO)cc(/C=N/NC(=O)c2ccc(O)cc2)c1O` [3b, 4-Hydroxy-N’-[(E)-(5-hydroxymethyl-3-methyl-2-hydroxyphenyl)methylidene]benzohydrazide], for which the melting point was 266 °C (dec.). Further, in data set [1], the inhibition constant (Ki) was ≥ 1000 µM.

For the compound `COc1cccc(OC)c1/C=N/NC(=O)c1ccc(O)cc1` [2f, 4-Hydroxy-N’-[(E)-(2,6-dimethoxyphenyl)methylidene]benzohydrazide], the melting point was 214.5 to 216 °C. For the same compound, in data set [1], the “inhibitory potency towards laccase” value is “practically inactive” and the Ki is ≥ 1000 µM.

On to `O=C(N/N=C/c1ccccc1)c1ccc(O)cc1` [1a, 4-Hydroxy-N’-[(E)-benzylidene]benzohydrazide], for which, in data set [1], the Ki amounted to 1470 ± 58 µM and the “The type of inhibition” value is reported as “a”.

Consider `COc1ccc(C(=O)NN)cc1` [4b, reference compound], for which, in data set [1], the “inhibitory potency towards laccase” value is “no inhibitory potency” and the Ki is ≥ 2400 µM.

`Cc1cc(/C=N/NC(=O)c2ccc(O)cc2)c(O)c(CO)c1` [3a, 4-Hydroxy-N’-[(E)-2-hydroxy-3-hydroxymethyl-5-methyl-benzylidene]benzohydrazide]: the melting point lay in the range of 229 to 230 °C. In addition, the Ki in data set [1] is ≥ 1000 µM.

Consider `COc1ccc(C(=O)N/N=C/c2cccc(-c3ccccc3)c2O)cc1` [2h, 4-Methoxy-N’-[(E)-2-hydroxy-3-phenyl-benzylidene]benzohydrazide], for which the melting point is 240 to 242.5 °C. For the same compound, the Ki in data set [1] was ≥ 1000 µM.

Regarding `O.O=C(N/N=C/c1cccc(O)c1)c1ccc(O)cc1` [1f, 4-Hydroxy-N’-[(E)-(3-hydroxyphenyl)methylidene]benzohydrazide monohydrate], in data set [1], the affinity corresponds to a Ki of 2400 ± 334 µM and the “The type of inhibition” value is “a”.

`COc1cccc(O)c1/C=N/NC(=O)c1ccc(O)cc1` [2e, 4-Hydroxy-N’-[(E)-(6-methoxy-2-hydroxyphenyl)methylidene]benzohydrazide] registered a melting point of 256.5 to 257.5 °C. For the same compound, the Ki in data set [1] was ≥ 1000 µM.

Consider `O=C(N/N=C/c1ccccc1S(=O)(=O)[O-])c1ccc(O)cc1.[Na+]` [1d, Sodium 2-{(E)-[2-(4-hydroxybenzoyl)hydrazinylidene]methyl}benzenesulfonate], for which the melting point was 251 °C (dec.). The Ki in data set [1] is ≥ 2400 µM.

In turn, `CC(C)(C)c1cc(/C=N/NC(=O)c2ccc(O)cc2)c(O)c(C(C)(C)C)c1` [3c, 4-Hydroxy-N’-[(E)-(3,5-di-tert-butyl-2-hydroxyphenyl)methylidene]benzohydrazide] had a melting point of 274.5 to 275.5 °C. In data set [1], the Ki stood at 17.9 ± 1.3 µM and the “The type of inhibition” value is listed as “b”.

`O=C(N/N=C/c1ccccc1O)c1ccc(O)cc1` [1e, 4-Hydroxy-N’-[(E)-(2-hydroxyphenyl)methylidene]benzohydrazide]: in data set [1], the Ki amounted to 674 ± 10 µM, the “The type of inhibition” value was “a” and the “type of inhibition” value is reported as “competitive”.

Consider `Cc1ccc(/C=N/NC(=O)c2ccc(O)cc2)cc1` [1c, 4-Hydroxy-N’-[(E)-(4-methylphenyl)methylidene]benzohydrazide monomethanolate], for which, in data set [1], the affinity, expressed as Ki, was 251 ± 26 µM; the “The type of inhibition” value is on record as “a”; the “type of inhibition” value is given as “competitive”.

The compound `COc1cc(/C=N/NC(=O)c2ccc(O)cc2)ccc1O` [2g, 4-Hydroxy-N’-[(E)-(4-hydroxy-3-methoxyphenyl)methylidene]benzohydrazide] displayed a melting point of 218.5 to 220 °C. In addition, in data set [1], the Ki is 251 ± 38 µM, the “The type of inhibition” value was “a” and the “type of inhibition” value is on record as “competitive”.

Regarding `O=C(N/N=C/c1cccc(-c2ccccc2)c1O)c1ccc(O)cc1` [2a, 4-Hydroxy-N’-[(E)-(2-hydroxy-3-phenyl-phenyl)methylidene]benzohydrazide monomethanolate], in data set [1], the inhibition constant (Ki) was 25.3 ± 6.9 µM, the “The type of inhibition” value is listed as “a” and the “type of inhibition” value is on record as “competitive”.

Take `O=C(N/N=C/c1cc(Br)ccc1O)c1ccc(O)cc1` [2d, 4-Hydroxy-N’-[(E)-(5-bromo-2-hydroxyphenyl)methylidene]benzohydrazide]: the melting point fell in the range of 276 to 278 °C. Also, the inhibition constant (Ki) in data set [1] was ≥ 1000 µM.

The compound `O=C(N/N=C/CCc1ccccc1)c1ccc(O)cc1` [1b, 4-Hydroxy-N’-[(E)-3-phenylpropylidene]benzohydrazide] showed a melting point of 243.5 to 244 °C. For the same compound, in data set [1], the Ki was determined as 1920 ± 163 µM and the “The type of inhibition” value is listed as “b”.

`Cc1ccc(C(C)C)c(O)c1/C=N/NC(=O)c1ccc(O)cc1` [3e, 4-Hydroxy-N’-[(E)-(2-hydroxy-3-isopropyl-6-methylphenyl)methylidene]benzohydrazide] yielded a melting point of 258.5 to 260.5 °C. Further, the Ki in data set [1] is ≥ 1000 µM.

In the case of `CC(C)(C)c1cccc(/C=N/NC(=O)c2ccc(O)cc2)c1O` [2b, 4-Hydroxy-N’-[(E)-(3-tert-butyl-2-hydroxyphenyl)methylidene]benzohydrazide], the melting point lay within 240 to 242 °C. For the same compound, in data set [1], the affinity corresponds to a Ki of 24 ± 5.9 µM, the “The type of inhibition” value was “a” and the “type of inhibition” value is listed as “competitive”.

Regarding `O=C(N/N=C/c1ccc(O)cc1O)c1ccc(O)cc1` [2c, 4-Hydroxy-N’-[(E)-(2,4-dihydroxyphenyl)methylidene]benzohydrazide], the melting point was 294 °C (dec.). Also, in data set [1], the “inhibitory potency towards laccase” value is “practically inactive”, the Ki was 939 ± 30 µM, the “The type of inhibition” value is “b” and the “type of inhibition” value was “uncompetitive”.

For the compound `O=C(N/N=C/c1ccc(O)cc1)c1ccc(O)cc1` [1g, 4-Hydroxy-N’-[(E)-(4-hydroxyphenyl)methylidene]benzohydrazide], in data set [1], the Ki worked out at 638 ± 35 µM and the “The type of inhibition” value is listed as “b”.
